{"source": "paper PMC2967600", "about": "(Peptides, 2010)", "key": {"[1]": {"test_system": "melanocortin receptors", "conditions": "cited from earlier work"}, "[2]": {"target": "hMC5R (Homo sapiens, UniProt P33032)", "sequence (P33032 whole entry)": "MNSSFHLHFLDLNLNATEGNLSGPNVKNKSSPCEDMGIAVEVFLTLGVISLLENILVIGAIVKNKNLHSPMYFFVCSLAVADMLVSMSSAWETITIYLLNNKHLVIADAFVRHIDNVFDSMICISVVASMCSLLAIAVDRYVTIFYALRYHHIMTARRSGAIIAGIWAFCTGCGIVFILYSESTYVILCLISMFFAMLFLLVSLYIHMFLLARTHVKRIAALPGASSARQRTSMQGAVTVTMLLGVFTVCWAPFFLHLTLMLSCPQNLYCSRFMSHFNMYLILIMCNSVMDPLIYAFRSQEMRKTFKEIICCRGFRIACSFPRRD", "conditions": "Bednarek et al.; cited from earlier work"}, "[3]": {"test_system": "rat MC5R", "conditions": "CHO cells; cited from earlier work"}, "[4]": {"target": "mMC3R (Mus musculus, UniProt P33033)", "sequence (P33033 whole entry)": "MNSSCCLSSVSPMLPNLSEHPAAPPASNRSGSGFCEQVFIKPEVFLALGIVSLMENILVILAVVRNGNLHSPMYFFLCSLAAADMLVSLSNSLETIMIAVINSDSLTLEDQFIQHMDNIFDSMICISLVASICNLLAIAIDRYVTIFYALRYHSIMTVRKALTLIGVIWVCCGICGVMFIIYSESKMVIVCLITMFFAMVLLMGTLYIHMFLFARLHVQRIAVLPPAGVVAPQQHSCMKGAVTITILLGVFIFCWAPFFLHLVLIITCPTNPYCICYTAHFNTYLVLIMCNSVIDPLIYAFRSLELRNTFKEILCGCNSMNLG", "assay": "cAMP based functional bioassay", "type": "cell-based"}, "[5]": {"target": "mMC5R (Mus musculus, UniProt P41149)", "sequence (P41149 whole entry)": "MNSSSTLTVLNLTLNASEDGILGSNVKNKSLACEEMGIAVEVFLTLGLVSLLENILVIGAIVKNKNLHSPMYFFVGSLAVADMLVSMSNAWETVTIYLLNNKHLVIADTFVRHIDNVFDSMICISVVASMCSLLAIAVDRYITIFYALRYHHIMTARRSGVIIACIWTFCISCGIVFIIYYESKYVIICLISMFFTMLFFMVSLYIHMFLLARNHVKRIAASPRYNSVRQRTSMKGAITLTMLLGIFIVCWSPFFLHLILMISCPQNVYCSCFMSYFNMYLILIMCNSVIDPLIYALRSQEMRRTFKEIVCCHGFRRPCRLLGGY", "assay": "cAMP based functional bioassay", "type": "cell-based", "conditions": "mMC5R EC50, agonist; mean ± SEM; >100000 = no activity at up to 100μM"}}, "note": "Ends that are not written are not given here.", "data": [{"substance": "Ac-His-Phe-Arg-Trp-NH2", "values": [{"measurement": "stimulation of melanocortin receptors", "setting": "[1]", "result": "able to fully stimulate"}]}, {"substance": "HS024", "values": [{"measurement": "functional activity at the hMC5R", "setting": "[2]", "result": "full hMC5R agonist"}, {"measurement": "functional activity at the rat MC5R", "setting": "[3]", "result": "full agonist"}]}, {"substance": "YVMGHFRWDR [Peptide 6]", "values": [{"measurement": "selectivity for the mMC3R versus the mMC4R", "setting": "[4]; from agonist EC50 values", "result": 18, "unit": "fold"}]}, {"substance": "MGHFRWDRF [Peptide 27]", "values": [{"measurement": "EC50", "setting": "[4]; mMC3R EC50, agonist, mean ± SEM, >100000 = no activity at up to 100μM", "result": 100, "unit": "nM"}, {"measurement": "EC50", "setting": "[5]", "result": 365, "unit": "nM"}]}]}
